Measurements taken from paper PMC7018972, “Novel and selective inactivators of Triosephosphate isomerase with anti-trematode activity” (Scientific Reports, 2020).

Experiments:
FhTIM = FhTIM (Fasciola hepatica, UniProt S4UI50); assay: Microscale thermophoresis (MST) binding to FhTIM
Description: MST experiments were performed according to the NanoTemper technologies protocol in a Monolith NT.115 (red/blue) instrument (NanoTemper Technologies, München, Germany[36]). With this technique, the diffusion behavior of a labeled protein is measured when an infrared light excites the movement of the protein in capillaries. This behavior is the combination of two effects: the fast, local environment-dependent responses of the fluorophore to the temperature jump and the slower diffusive thermophoresis fluorescence changes. It will be modified when the protein is complexed with increasing amounts of unlabeled partners, leading to titration curves that can be fit for Kd estimation. In practice, FhTIM was labeled with the Monolith His-Tag Labeling Kit RED-tris-NTA (NanoTemper Technologies, München, Germany), as described by the manufacturer. The experiments were performed using 20% and 40% MST power and between 20–80% LED power at 24 °C. The MST traces were recorded using the standard parameters: 5 s MST power off, 30 s MST power on, and 5 s MST power off. The compounds were used at high concentrations (around 5 mM) in the bindings check assay with DMSO at 5% v/v. If the binding check was positive, then the affinity determination was performed with the same experimental settings, with serial 2x dilutions of the compound of interest.

[1] = test system: murine macrophages and bovine sperm; assay: Non-specific toxicity against mammalian cells; format: cell-based; details: for Toxicity mammalian cells: selectivity index parasite vs. mammalian cells, fixed doses 25 and 100 µM
Description: As a proof of concept, we tested the best FhTIM inactivators against F. hepatica and S. mansoni parasites. Also, we use compound 191 as a non-inhibitor which has a closely related structure to that of compound 187. Some compounds were able to kill 100% of the newly excysted juvenile (NEJ) F. hepatica within 4 to 48 h (Table 2 and Fig. 2). […] In parallel, these compounds were assayed to characterize their non-specific toxicity against murine macrophages and bovine sperm. Both models are recommended by FDA as an in vitro prediction of toxicology.
J774.1 murine macrophage cells (ATCC, USA) were grown in DMEM culture milieu containing 4 mM glutamine and supplemented with 10% FCS[20]. The cells were seeded in a 96-well plate (5×10^4 cells in 200 µL culture medium) and incubated at 37 °C in a 5% CO2 atmosphere for 48 h, to allow cell adhesion prior to drug testing. Afterward, cells were exposed for 48 h to the compounds (25–400 µM) or the vehicle for control (0.4% DMSO), and additional controls (cells in medium) were used in each test. Cell viability was then assessed by measuring the mitochondria-dependent reduction of MTT (3-(4,5-dimethylthiazol-2-yl)-2,5-diphenyltetrazolium bromide) to formazan. For this purpose, MTT in sterile PBS (0.2% glucose), pH 7.4, was added to the macrophages to achieve a final concentration of 0.1 mg/mL, and the cells were incubated at 37 °C for 3 h. After removing the medium, formazan crystals were dissolved in 180 µL of DMSO and 20 µL of MTT buffer (0.1 M glycine, 0.1 M NaCl, 0.5 mM EDTA, pH 10.5), and the absorbance at 560 nm was measured. The IC50 was defined as the drug concentration at which 50% of the cells were viable, relative to the control (no drug added), and was determined by analysis using OriginLab8.5® sigmoidal regression (% of viable cells vs. the logarithm of the compound concentration). Tests were performed in triplicate.
Semen samples were obtained from a healthy fertile Hereford bull and kept frozen in 0.5 mL straws (extended in Andromed, Minitube, Germany[47]) under liquid nitrogen until use. The semen used belonged to a single freezing batch that was obtained during a regular collection schedule with an artificial vagina. Samples from three straws were thawed and a sperm pool was prepared in PBS at a concentration of 40 million spermatozoa per mL, then 50 μL of this sperm suspension was carefully mixed with 50 μL of compounds diluted to 100, 50, 25, 12.5 and 6.25 μM or with 1% DMSO in control experiments. Each condition was assayed by duplicate in 96-well plates and controls were assayed by triplicate. Plates were incubated at 37 °C for 1 h with moderate shaking. The motility analysis was carried out using a CASA (Computer Assisted Semen Analyzer) system Androvision (Minitube, Tiefenbach, Germany) with an Olympus BX 41 microscope (Olympus, Japan) equipped with a warm-stage at 37 °C. Each sample (10 μL) was placed onto a Makler Counting Chamber (depth 10 μm, Sefi-Medical Instruments, Israel) and the following parameters were evaluated: percentage of total motile spermatozoa (motility >5 μm/s) and velocity curved line (VCL, >24 μm/s). At least 400 spermatozoa were analyzed from each sample from at least four microscope fields.

[2] = test system: F. hepatica infected mice; assay: Mouse infection with F. hepatica; format: in vivo, BALB/c mice; details: for protection of mice from F. hepatica infection (clinical signs, Clinic Score): one dose 100 mg/kg orogastric, 1 week post-infection, read at 3 wpi; for transaminase profile at the end of the experiment: one dose 100 mg/kg, infected mice
Description: Six- to eight-week-old female BALB/c mice were obtained from DILAVE Laboratories[57] (Uruguay). Animals were kept in the animal house (URBE, Facultad de Medicina, UdelaR, Uruguay) with water and food supplied ad libitum. Mouse handling and experiments were carried out in accordance with strict guidelines from the National Committee on Animal Research (CNEA, Uruguay). All procedures involving animals were approved by the Universidad de la República’s Committee on Animal Research (CHEA Protocol Number: 070153-000180-16). BALB/c mice were orally infected with 10 F. hepatica metacercariae per animal. After 1 week post-infection (wpi), mice were intragastrically inoculated with compound 187 (100 mg/kg) or TCZ (100 mg/kg). At 3 wpi mice were bled and sacrificed. Peritoneal exudate cells, spleens, and livers were removed and analyzed. In order to evaluate the severity of the infection, a disease severity score was developed (Table 3S Supporting Information)[57], which was applied in blinded experiments. Alanine aminotransferase (ALT) activity in sera was determined using a commercial kit (Spinreact, Spain) according to the manufacturers’ instructions. PECs from infected and non-infected mice were washed twice with PBS containing 2% FBS and 0.1% sodium azide.

FhTIM, sequence (S4UI50 entry or part of it): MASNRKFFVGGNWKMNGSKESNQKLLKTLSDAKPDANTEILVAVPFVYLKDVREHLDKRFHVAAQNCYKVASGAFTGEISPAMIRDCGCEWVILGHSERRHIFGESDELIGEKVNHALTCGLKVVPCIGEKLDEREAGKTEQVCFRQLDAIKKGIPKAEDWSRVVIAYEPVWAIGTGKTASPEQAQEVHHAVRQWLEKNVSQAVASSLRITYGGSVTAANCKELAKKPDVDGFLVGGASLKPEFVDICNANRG

With `Cc1ccc(-c2nsc(S(=O)(=O)c3ccc(C)cc3)n2)cc1` [Compound 187] the Kd (FhTIM; 24 °C) was 0.07 ± 0.01 µM, the Kd (FhTIM; abstract) was 0.066 µM and the “toxicity to mammalian cells in words” value ([1]; herein) was “non-toxic”. For the same compound, the Toxicity mammalian cells [1] was “NT (when the IC50 vs. the parasite was at least 10 times less than the IC50 vs. the mammalian cells, we considered these compounds as non-toxic (NT))”, the “protection of mice from F. hepatica infection (clinical signs, Clinic Score)” value [2] was “protected mice from the infection” and the “transaminase profile at the end of the experiment” value [2] was “according to a healthy liver”.

For `CSc1nc2cc(Cl)c(Oc3cccc(Cl)c3Cl)cc2[nH]1` [Compound 1278, triclabendazole, reference compound], the Kd (FhTIM; 24 °C) was 1000 µM, the Toxicity mammalian cells [1] was “NT (when the IC50 vs. the parasite was at least 10 times less than the IC50 vs. the mammalian cells, we considered these compounds as non-toxic (NT))” and the “protection of mice from F. hepatica infection (clinical signs, Clinic Score)” value [2] was “protected mice from the infection”. For the same compound, the “transaminase profile at the end of the experiment” value [2] was “according to a healthy liver”.
